Broadly, the solubility is the concentration that dissolves in the medium under given conditions. One may read the LD50 as the dose expected to kill half of the subjects tested. Read a low LD50 as a more toxic substance.

This is an account of results in patent publication US4705803A, “Method of improving resorption of injected antibacterially active substances or combinations” (Boehringer Ingelheim Vetmedica GmbH, priority 1982, dated 1987).

The nature of one data set: physchem. The conditions noted are these: water.
A short description of data set [1]: acute toxicity (LD50) in the mouse. The conditions noted are these: in vivo, ip. The source says:
For example, the acute toxicity (LD50) in the mouse is […]

In data set [2] the test system is respiratory tract secretion. The conditions noted are these: cited from earlier work; for concentration of solids in the fluid of the respiratory tract / quantity of secretion / viscosity of the secretion: human and veterinary medicine; for specific weight: solids/fluid of the respiratory tract.
Data set [3] is described as follows: maximum solubility in water.

Where only a bound is given, the exact number is not on record here.

In turn, `CN(Cc1cc(Br)cc(Br)c1N)C1CCCCC1.Cl` [Compound A, N-(2-amino-3,5-dibromo-benzyl)-N-methyl-cyclohexylamine hydrochloride] registered a solubility in “physchem” of 200 to 5000 µg/mL. The LD50 in data set [1] is greater than 400 mg/kg. In addition, in data set [2], the “concentration of solids in the fluid of the respiratory tract” value was “reduction”, the quantity of secretion entry was “significant increase”, the “viscosity of the secretion” value was “decrease” and the specific weight entry is “reduction”.

In “physchem”, `Cl.Nc1c(Br)cc(Br)cc1CN[C@H]1CC[C@H](O)CC1` [Compound B, N-(2-amino,3,5-dibromo-benzyl)-trans-4-hydroxy-cyclohexylamine hydrochloride] gave a solubility of 16600 µg/mL. For the same compound, the LD50 in data set [1] came out at 268 mg/kg. For the same compound, in data set [2], the “concentration of solids in the fluid of the respiratory tract” value is “reduction”, the quantity of secretion entry is given as “significant increase”, the “viscosity of the secretion” value is reported as “decrease” and the specific weight result is on record as “reduction”.

Compound `Cl.Oc1c(Br)cc(Br)cc1CN[C@H]1CC[C@H](O)CC1` [Compound C, N-(3,5-dibromo-2-hydroxy-benzyl)-trans-4-hydroxycyclohexylamine hydrochloride] registered an LD50 in data set [1] greater than 800 mg/kg. Further, the solubility in data set [3] lay in the range of 100 to 1000 µg/mL.
